# How the values were obtained:
# [1] = tested on: muscarinic cholinergic receptor; details: results of pharmacological studies
# [2] = detection of radiolabelled compound in saliva; format: in vivo
# Experimental: For example, in the treatment of adult humans, dosages of from about 0.25 to 50 mg, preferably from 1 to 30 mg, and most preferably 1 to 20 mg per day may be used. A once a day dosage is normally sufficient, although divided doses may be administered. For treatment of cognitive dysfunction, a dose range of from 1 to 30 mg, preferably 1 to 20 mg per day is suitable.
# [3] = tested on: elderly patients with cognitive dysfunction; test: double-blind multicenter clinical trial in elderly patients with cognitive dysfunction; format: in vivo, human; details: 237 elderly patients (>=65 years), versus placebo; BEHAVE-AD, BPRS and CGI rating scales
# Experimental: Changes in behavioral manifestations were measured using the BEHAVE-AD, BPRS, and CGI rating scales, which are known and available to the skilled artisan.
# 5-HT1C receptor = biological target: T1, 5-HT1C receptor (Homo sapiens, UniProt P28335); test: 5-HT1C receptor activity
# T1 sequence (P28335 33-458): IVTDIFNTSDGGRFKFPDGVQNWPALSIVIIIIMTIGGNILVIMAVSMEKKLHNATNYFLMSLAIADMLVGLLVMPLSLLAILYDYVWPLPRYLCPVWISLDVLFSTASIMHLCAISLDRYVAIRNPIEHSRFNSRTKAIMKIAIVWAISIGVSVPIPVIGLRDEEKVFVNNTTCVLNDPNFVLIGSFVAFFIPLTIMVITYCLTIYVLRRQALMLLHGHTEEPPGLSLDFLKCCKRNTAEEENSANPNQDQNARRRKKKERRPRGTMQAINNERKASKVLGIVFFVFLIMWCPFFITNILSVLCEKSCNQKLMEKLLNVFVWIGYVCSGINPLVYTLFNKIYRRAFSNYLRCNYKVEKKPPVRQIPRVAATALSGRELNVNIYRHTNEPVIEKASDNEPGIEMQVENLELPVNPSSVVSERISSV
Compound,muscarinic cholinergic receptor activity [1],detection in saliva [2],changes in behavioral manifestations [3],activity at the 5-HT1C receptor (5-HT1C receptor)
"Cc1cc2c(s1)Nc1ccccc1N=C2N1CCN(C)CC1 [2-methyl-4-(4-methyl-1-piperazinyl)-10H-thieno[2,3-b][1,5]benzodiazepine]",has muscarinic cholinergic receptor activity,can be detected in the saliva,can be useful for the treatment of behavioral manifestations of cognitive dysfunction,–
"Cc1cc2c(s1)Nc1ccccc1N=C2N1CCN(C)CC1 [anhydrous Form I compound, 2-methyl-4-(4-methyl-1-piperazinyl)-10H-thieno[2,3-b][1,5]benzodiazepine]",–,–,–,active
